Results as given in US3984555A, “Therapeutic piperazinylalkyl-quinazolone-(4)-derivatives” (Byk Gulden Lomberg Chemische Fabrik Gesellschaft mit …, priority 1970, dated 1976).

What was measured:
[1] = German Published patent application No. 1,231,705 and 1,249,281; cited from earlier work
[2] = test system: running activity of mice pre-treated with α-amphetamine sulphate; test: Inhibition of running activity of mice pre-treated with α-amphetamine sulphate (Table III, c); format: in vivo; settings: Mus musculus, ip, 3 h, 5 mg/kg α-amphetamine sulphate, 180 minutes; for inhibition in vivo at 25 mg/kg: 25mg/kg i/p, read-out: c % inhibition of motility in the treadwheel by 25mg/kg i/p
[3] = test system: blood pressure and cardiac frequency of the narcotised cat; test: Influence on the blood pressure and cardiac frequency of the narcotised cat (Table I); format: in vivo; parameters: unit not given here; settings: for Blood pressure lowered by 30% by: dose lowering blood pressure by 30%; for Blood pressure lowered by 50% by: dose lowering blood pressure by 50%
Excerpt: (§1) Influence on the blood pressure and cardiac frequency and also
(§2) on the carotid sinus reflex of the narcotised cat
(§3) Table I provides a general summary of the influence of different piperazinylquinazolones on the blood pressure, the cardiac frequency and the carotid sinus reflex of the narcotised cat.

[4] = test system: duration of sleep of mice under hexobarbital; test: Prolongation of hexobarbital sleep in mice (Table III, d); format: in vivo; settings: Mus musculus, ip; 15 mg/kg i.p.; 75 mg/kg hexobarbital; read-out: d % prolongation of sleep under hexebarbital by 15 mg/kg i.p.
Protocol: d = percentage prolongation of the duration of sleep of mice which had received 75 mg/kg. of hexobarbital, reckoned on the duration of the sleep of control animals.

carotid sinus reflex = test: Inhibition of the carotid sinus reflex of the narcotised cat (Table I); format: in vivo; parameters: unit not given here; settings: for Inhibition of the carotid sinus reflex by 30% by: dose for 30% inhibition; for Inhibition of the carotid sinus reflex by 50% by: dose for 50% inhibition
Excerpt: as §1, §2, §3
The inhibition of the carotid sinus reflex brought about by the piperazinyl quinazolones occurs at lower doses than the spontaneous lowering of the blood pressure in the cat.

mouse [5] = test: Mice falling from a rotating bar (Table III, a); format: in vivo; settings: ip, read-out: a PD50 mg/kg i.p.
Excerpt: The central damping actions of the piperazinyl quinazolones on the mouse can be seen from Table III.
a = dose at which 50% of the mice fall from a rotating bar;

mouse [6] = test: Inhibition of spontaneous motility, sedation, muscular relaxation, loss of grip on horizontal wire mesh in mice (Table III, b); format: in vivo; settings: po, dose at which an average of 50% of the mice display symptoms, read-out: b SD50 mg/kg oral
[7] = test system: hypertensive effect of 1-adrenalin; test: 50% inhibition of hypertensive effect of 0.001 mg/kg i/v 1-adrenalin on the despinalised rat (Table II); format: in vivo; settings: iv, read-out: 50% inhibition of hypertensive effect after i/v dose of Adrenalin by mg/kg i/v
Protocol: (§4) also on the hypertensive effect of 0.001 mg/kg i/v 1-adrenalin and
(§5) blood pressure and the cardiac frequency of the narcosed rate and also on
(§6) the hypertensive effect of 0.001 mg/kg i.v. 1-adrenaline and noradrenaline
(§7) on the despinalised rat. The mean lethal doses for the mouse are also

[8] = test system: defence reaction after the thermal stimulation of the tail of the mouse; test: Analgesic effect on the mouse: delay in defence reaction after thermal stimulation of the tail (Table IV); format: in vivo; settings: po; mouse; per os; 25% delay; read-out: Delay in the defence reaction after the thermal stimulation of the tail of the mouse by 25% by mg/kg per os
Excerpt: From Table IV below one can see the analgesic action, measured in terms of the delayed reaction during the thermal irritation of the mouse tail. The analgesically effective doses are also below those which reduce the motor behaviour, that is to say the normal movement processes (cf. Table III).
Analgesic effect on the mouse
Delay in the defence reaction after
the thermal stimulation of the tail

[9] = LD50 (mean lethal dose) on the mouse (Table II); settings: in vivo
Excerpt: as §7

[10] = test system: blood pressure and cardiac frequency of the narcotised rat; test: Influence on the blood pressure and the cardiac frequency of the narcotised rat (Table II); format: in vivo; settings: iv, i/v, read-out: Blood pressure lowered by 30% by mg/kg i/v
Excerpt: Influence on the blood pressure and the cardiac frequency of the
blood pressure and the cardiac frequency of the narcosed rate and also on […]

[11] = test system: hypertensive effect of noradrenalin; test: 50% inhibition of hypertensive effect of 0.001 mg/kg i/v noradrenalin on the despinalised rat (Table II); format: in vivo; settings: iv, read-out: 50% inhibition of hypertensive effect after i/v dose of Noradrenalin by mg/kg i/v
Protocol: as §4, §5, §6, §7

[12] = test system: systolic and diastolic blood pressure; test: Orientating clinical test in patients (FIGS. 1 and 2); format: in vivo, 7 female and 1 male patient
[13] = 10 and 20 mg per os, 7 female and 1 male patient

| Compound | inhibition in vivo at 25 mg/kg [2] [%] | Blood pressure lowered by 30% by [3] | Blood pressure lowered by 50% by [3] | change in vivo at 15 mg/kg [4] [%] | Inhibition of the carotid sinus reflex by 30% by (carotid sinus reflex) | Inhibition of the carotid sinus reflex by 50% by (carotid sinus reflex) | ED50 (mouse [5]) [mg/kg] | ED50 (mouse [6]) [mg/kg] | ED50 [7] [mg/kg] | ED25 [8] [mg/kg] | LD50 [9] [mg/kg] | ED30 [10] [mg/kg] | ED50 [11] [mg/kg] | also measured |
| --- | --- | --- | --- | --- | --- | --- | --- | --- | --- | --- | --- | --- | --- | --- |
| CCOc1ccc2nc(CN(C)C)n(C)c(=O)c2c1 [2-dimethylaminomethyl-3-methyl-6-ethoxyquinazolone-4] |  |  |  |  |  |  |  |  |  |  |  |  |  | analgesic action compared with 4-dimethylamino-1-phenyl-2,3-dimethylpyrazolone-5 [1]: comparable |
| COc1cc2nc(CCN3CCN(c4ccccc4OC)CC3)[nH]c(=O)c2cc1OC [Example 6, 2-(2-(1-(2-methoxyphenyl)piperazinyl-4)ethyl)-6,7-dimethoxy-4(3H)-quinazolone] | 28 | 0.07 | 0.61 | 79 | 0.12 | 0.35 | 34 | 40 | 0.036 | 1.5 | 600 | 0.35 | > 2.5 | inhibition in vivo at 12 mg/kg ([2]; 12mg/kg i/p, read-out: c % inhibition of motility in the treadwheel by 12mg/kg i/p): 19%; effect on the sensorium [12, 13]: no effect on the sensorium; lowering of the diastolic blood pressure [12, 13]: statistically significant lowering; lowering of the systolic blood pressure [12, 13]: statistically significant lowering; tolerance [12, 13]: very good tolerance; difference in the action of 10 and 20 mg. ([12]; 10 vs 20 mg, FIGS. 1 and 2): statistically confirmed; dose dependence of the lowering of the blood pressure ([12]; mean initial blood pressure 171.9 mm Hg systolic, 95.3 mm Hg diastolic, FIGS. 1 and 2): dependent upon the dose |
| COc1cc2nc(CCN3CCN(c4ccccc4F)CC3)[nH]c(=O)c2cc1OC [Example 14, 2-(2-(1-(2-fluorophenyl)piperazinyl-4)ethyl)-6,7-dimethoxy-4(3H)-quinazolone] | 1 | 0.9 | > 1.6 | 68 | 0.04 | 0.15 | 61 | 180 | 0.058 | 2 | 150 | 0.18 | > 2.5 |  |
